Results from publication PMC5290327, “SC83288 is a clinical development candidate for the treatment of severe malaria” (Nature Communications, 2017).
In brackets after ≈: the same amount, converted by molar mass. Read-outs that look alike come from different tables or passages of the source.

How the values were obtained:
[1] = test system: P. falciparum strain Dd2; test: Growth inhibition assay, asexual blood stages; format: cell-based, Plasmodium falciparum
[2] = Solubility in water; conditions: for Solubility in H2O: Supplementary Table 2
[3] = test system: CACO 2 cells; test: Permeability assay; format: in vitro ADME; conditions: Supplementary Table 2
Procedure: The study was conducted by Cyprotex (Macclesfield, United Kingdom). CACO 2 cells (Sigma-Aldrich, catalogue: 86010202) were seeded on Millipore Millicell plates and formed a confluent monolayer over 20 days before the experiment. On day 20, the tested compounds at a final concentration of 10 μM were added to the apical side of the membrane. The transport of the compound across the monolayer was monitored over a 2 h period by liquid chromatography (LC)–MS/MS quantification. The permeability coefficient (Papp) was calculated from the following equation: [drawing 1] , where dQ/dt is the rate of permeation of the drug across the cells, C0 the donor compartment concentration at time zero and A the area of the cell monolayer. C0 was obtained from analysis of the dosing solution at the start of the experiment.

[4] = test system: P. falciparum strain D10; test: Growth inhibition assay; format: cell-based; conditions: Plasmodium falciparum
[5] = test system: P. falciparum strain 3D7; test: Growth inhibition assay; format: cell-based; conditions: Plasmodium falciparum
[6] = test system: P. falciparum strain FCR3; test: Growth inhibition assay; format: cell-based; conditions: Plasmodium falciparum
[7] = test system: P. falciparum strain K1; test: microbe, parasite or virus in culture; format: cell-based; conditions: Plasmodium falciparum
[8] = test system: P. falciparum strain Thai19; test: Growth inhibition assay; format: cell-based; conditions: Plasmodium falciparum
[9] = test system: P. falciparum strain 7G8; test: microbe, parasite or virus in culture; format: cell-based; conditions: Plasmodium falciparum
[10] = test system: Dd2 P. falciparum parasites; test: In vitro parasite reduction ratio assay (Sanz protocol); format: cell-based, Plasmodium falciparum
[11] = In vitro metabolism in liver microsomes; conditions: Human
[12] = In vitro metabolism in liver microsomes; conditions: Monkey
[13] = In vitro metabolism in liver microsomes; conditions: Dog
[14] = In vitro metabolism in liver microsomes; conditions: Mouse
[15] = In vitro metabolism in liver microsomes; conditions: Rat
[16] = test system: Plasmodium vinckei; test: Rodent malaria model; format: in vivo; conditions: P. vinckei
Description: The two SC compounds were also active in the Plasmodium vinckei rodent malaria model system.

[17] = Supplementary Table 2, read-out: In vitro IC50
[18] = Plasmodium falciparum, DD2, strain Dd2, Supplementary Table 3
[19] = Supplementary Table 8, read-out: In vitro IC50

Work on `N=C(N)c1cccc(NC(=O)Nc2cccc(C(=N)N)c2)c1` [amicarbalide, reference compound] yielded an IC50 ([1]; Plasmodium falciparum, DD2, read-out: In vitro IC50, Supplementary Table 2) of 10 nM and a solubility ([2]; water) of 100 µg/mL (≈ 337 µM).

In the case of `CCC(=O)N1CCN(C(=N)c2cccc(NC(=O)Nc3ccc(S(=O)(=O)NCc4ccc(S(N)(=O)=O)cc4)cc3)c2)CC1` [SC83289], the IC50 [1, 17] is reported as 1820 nM, the Papp [3] is reported as 1.70 10-6 cm s-1 and the “Solubility in H2O” value [2] is reported as 32 µg/mL (≈ 51 µM).

Work on `C[C@@H]1CC[C@H]2[C@@H](C)C(=O)O[C@@H]3O[C@@]4(C)CC[C@@H]1[C@]32OO4` [Artemisinin] yielded an IC50 [1, 18] of 2 ± 0.1 nM, an IC50 [4] of 9 ± 0.4 nM and an IC50 [5] of 8 ± 0.3 nM. For the same compound, the IC50 [6] was 5 ± 1 nM, the IC50 [7] was 3 ± 1 nM and the IC50 [8] was 3 ± 1 nM. For the same compound, the IC50 [9] was 1 ± 0.3 nM, the “In vitro PCT99.9%” value ([10]; 10 times IC50, Dd2) was 21 ± 3 h and the “In vitro lag phase” value ([10]; 10 times IC50, Dd2) was “zero”. For the same compound, the “In vitro logPRR” value ([10]; 10 times IC50, Dd2, over 48 h) was 4.5±2.

With `N=C(c1cccc(NC(=O)Nc2ccc(S(=O)(=O)NCc3ccc(S(N)(=O)=O)cc3)cc2)c1)N1CCN(Cc2ccncc2)CC1` [SC82687] the IC50 [1, 17] was 995 nM and the “Solubility in H2O” value [2] was 32 µg/mL (≈ 48.3 µM).

With `N=C(c1cccc(NC(=O)Nc2ccc(S(=O)(=O)NCc3ccc(S(N)(=O)=O)cc3)cc2)c1)N1CCNCC1` [Metabolite 1] the IC50 ([1]; major metabolite, read-out: IC50, antiplasmodial activity in vitro) was 65 nM, the “Share of metabolite from the total combined metabolite peak area” value (“Share of metabolite” below) ([11]; SC81458 metabolites) was 7% and the “Share of metabolite” value ([11]; SC83288 metabolites) was 13.3%. The “Share of metabolite” value ([12]; SC81458 metabolites) was 10.5%, the “Share of metabolite” value ([12]; SC83288 metabolites) was 16.2% and the “Share of metabolite” value ([13]; SC81458 metabolites) was 63.6%. For the same compound, the “Share of metabolite” value ([13]; SC83288 metabolites) was 87.3%, the “Share of metabolite” value ([14]; SC81458 metabolites) was 22.2% and the “Share of metabolite” value ([14]; SC83288 metabolites) was 5%. The “Share of metabolite” value ([15]; SC81458 metabolites) was 27.8% and the “Share of metabolite” value ([15]; SC83288 metabolites) was 19.7%.

In the case of `N=C(c1cccc(NC(=O)Nc2ccc(S(=O)(=O)c3ccc(Br)cc3)cc2)c1)N1CCC(O)CC1` [SC77215], the IC50 [1, 19] is reported as 68 nM and the “Outcome: decrease of parasitemia” value ([16]; 20 mg kg-1 i.p. 1x4 days) is reported as 45%.

With `C=CNC(=N)c1cccc(NC(=O)Nc2ccc(S(=O)(=O)NCc3ccc(S(N)(=O)=O)cc3)cc2)c1` [SC81458 M30] the “Share of metabolite” value ([14]; SC81458 metabolites) was 1.8%.

With `C=C[C@H]1C[N@@]2CC[C@H]1C[C@@H]2[C@@H](O)c1ccnc2ccc(OC)cc12` [Quinidine] the IC50 [1, 18] was 15 ± 1 nM, the IC50 [4] was 16 ± 1 nM and the IC50 [5] was 14 ± 1 nM. The IC50 [6] was 32 ± 6 nM, the IC50 [7] was 12 ± 3 nM and the IC50 [8] was 22 ± 5 nM. It also gave an IC50 [9] of 16 ± 4 nM.

With `CCN(CC)CCCC(C)Nc1ccnc2cc(Cl)ccc12` (stereo not shown) [Chloroquine] the IC50 [4] was 11 ± 30 nM, the IC50 [5] was 3 nM and the IC50 [6] was 25 ± 40 nM. It also gave an IC50 [7] of 70 ± 14 nM, an IC50 [8] of 74 ± 17 nM and an IC50 [9] of 30 ± 70 nM.

In the case of `N=C(c1cccc(NC(=O)Nc2ccc(S(=O)(=O)NCc3ccc(S(N)(=O)=O)cc3)cc2)c1)N1CCN(CCO)CC1` [SC81452], the IC50 [1, 17] is reported as 100 nM and the “Solubility in H2O” value [2] is reported as 32 µg/mL (≈ 52 µM).

For `N=C(N)c1cccc(NC(=O)Nc2ccc(S(=O)(=O)c3ccc(Br)cc3)cc2)c1` [SC48443], the IC50 [1, 17] was 63.9 nM and the “Solubility in H2O” value [2] was 100 µg/mL (≈ 211 µM).

For `N=C(c1cccc(NC(=O)Nc2ccc(S(=O)(=O)NCc3ccc(S(N)(=O)=O)cc3)cc2)c1)N1CCOCC1` [SC87507], the IC50 [1, 17] was 139 nM and the Papp [3] was 1.23 10-6 cm s-1.

In the case of `N=C(c1cccc(NC(=O)Nc2ccc(S(=O)(=O)NCc3ccc(S(N)(=O)=O)cc3)cc2)c1)N1CCNCC1` [SC82904], the IC50 [1, 19] is reported as 99 nM, the Outcome ([16]; 30 mg kg-1 i.p. 1x4 days) is reported as “no complete clearance” and the “Outcome: decrease of parasitemia” value ([16]; 30 mg kg-1 i.p. 1x4 days) is reported as over 80%.

In the case of `CC(=O)N1CCN(C(=N)c2cccc(NC(=O)Nc3ccc(S(=O)(=O)NCc4ccc(S(N)(=O)=O)cc4)cc3)c2)CC1` [SC83287], the IC50 [1, 17] is reported as 5000 nM and the “Solubility in H2O” value [2] is reported as 10 µg/mL (≈ 16.3 µM).
